In patent US20260167619A2, “INDOLINE COMPOUNDS AND DERIVATIVES AS EGFR INHIBITORS” (BeOne Medicines I GmbH, priority 2020, published 2026):

Assays:
[1] = target: T1, EGFR (aa668-1210, Invitrogen) (Homo sapiens, UniProt P00533); assay: Biochemical EGFR inhibition assay (TR-FRET), wild-type EGFR; conditions: ATP at Km, 15 min pre-incubation, 60 min reaction; read-out: WT (Km ATP) IC50
T1 construct: EGFR (aa668-1210, Invitrogen); purchased Invitrogen
Method in brief: (§1)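 Recombinant kinase pre-incubated with compound 15 min at room temperature in 50 mM HEPES pH7.5, 10 mM MgCl2, 2 mM DTT, 1 mM EGTA, 0.1% BSA, 0.01% Tween-20; reaction started with ATP at Km plus biotin-poly GT, run 60 min at RT. HTRF read (665/620 nm); IC50 from four-parameter logistic fit.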

[2] = target: EGFR(Dell9_T790M_C797S) (aa 669-1210, in house) (Homo sapiens, UniProt P00533, T790M/C797S, form not given); assay: Biochemical EGFR inhibition assay (TR-FRET), Del19/T790M/C797S mutant; conditions: ATP at Km, 15 min pre-incubation, 60 min reaction; read-out: Del_TM_CS (Km ATP) IC50
Method in brief: as §1

[3] = target: T2, EGFR(L858R_T790M_C797S) (aa695-end, Invitrogen) (Homo sapiens, UniProt P00533, C797S/L858R/T790M); assay: Biochemical EGFR inhibition assay (TR-FRET), L858R/T790M/C797S mutant; conditions: ATP at Km, 15 min pre-incubation, 60 min reaction; read-out: LR_TM_CS (Km ATP) IC50
T2 construct: purchased Invitrogen
T2 sequence (P00533 695-1210 T790M/C797S/L858R): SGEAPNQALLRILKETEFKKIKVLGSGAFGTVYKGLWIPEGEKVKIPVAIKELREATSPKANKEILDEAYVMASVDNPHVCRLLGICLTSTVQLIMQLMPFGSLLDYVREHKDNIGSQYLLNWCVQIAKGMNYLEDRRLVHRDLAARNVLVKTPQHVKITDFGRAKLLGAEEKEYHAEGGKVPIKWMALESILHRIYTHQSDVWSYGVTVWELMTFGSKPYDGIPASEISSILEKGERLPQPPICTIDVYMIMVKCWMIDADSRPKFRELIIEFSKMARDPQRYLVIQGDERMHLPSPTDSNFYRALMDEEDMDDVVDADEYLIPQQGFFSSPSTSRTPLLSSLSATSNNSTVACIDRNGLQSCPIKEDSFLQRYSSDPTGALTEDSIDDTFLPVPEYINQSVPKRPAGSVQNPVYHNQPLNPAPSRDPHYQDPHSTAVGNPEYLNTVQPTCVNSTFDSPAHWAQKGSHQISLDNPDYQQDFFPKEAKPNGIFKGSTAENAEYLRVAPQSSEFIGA
Method in brief: as §1

BaF3-WT cells = BaF3-WT cells (Homo sapiens, UniProt P00533); assay: Cell antiproliferation assay (CellTiter-Glo), BaF3-WT; type: cell-based; conditions: 48 h treatment, read-out: BaF3-WT IC50
BaF3-WT cells, sequence (P00533 whole entry, change not shown): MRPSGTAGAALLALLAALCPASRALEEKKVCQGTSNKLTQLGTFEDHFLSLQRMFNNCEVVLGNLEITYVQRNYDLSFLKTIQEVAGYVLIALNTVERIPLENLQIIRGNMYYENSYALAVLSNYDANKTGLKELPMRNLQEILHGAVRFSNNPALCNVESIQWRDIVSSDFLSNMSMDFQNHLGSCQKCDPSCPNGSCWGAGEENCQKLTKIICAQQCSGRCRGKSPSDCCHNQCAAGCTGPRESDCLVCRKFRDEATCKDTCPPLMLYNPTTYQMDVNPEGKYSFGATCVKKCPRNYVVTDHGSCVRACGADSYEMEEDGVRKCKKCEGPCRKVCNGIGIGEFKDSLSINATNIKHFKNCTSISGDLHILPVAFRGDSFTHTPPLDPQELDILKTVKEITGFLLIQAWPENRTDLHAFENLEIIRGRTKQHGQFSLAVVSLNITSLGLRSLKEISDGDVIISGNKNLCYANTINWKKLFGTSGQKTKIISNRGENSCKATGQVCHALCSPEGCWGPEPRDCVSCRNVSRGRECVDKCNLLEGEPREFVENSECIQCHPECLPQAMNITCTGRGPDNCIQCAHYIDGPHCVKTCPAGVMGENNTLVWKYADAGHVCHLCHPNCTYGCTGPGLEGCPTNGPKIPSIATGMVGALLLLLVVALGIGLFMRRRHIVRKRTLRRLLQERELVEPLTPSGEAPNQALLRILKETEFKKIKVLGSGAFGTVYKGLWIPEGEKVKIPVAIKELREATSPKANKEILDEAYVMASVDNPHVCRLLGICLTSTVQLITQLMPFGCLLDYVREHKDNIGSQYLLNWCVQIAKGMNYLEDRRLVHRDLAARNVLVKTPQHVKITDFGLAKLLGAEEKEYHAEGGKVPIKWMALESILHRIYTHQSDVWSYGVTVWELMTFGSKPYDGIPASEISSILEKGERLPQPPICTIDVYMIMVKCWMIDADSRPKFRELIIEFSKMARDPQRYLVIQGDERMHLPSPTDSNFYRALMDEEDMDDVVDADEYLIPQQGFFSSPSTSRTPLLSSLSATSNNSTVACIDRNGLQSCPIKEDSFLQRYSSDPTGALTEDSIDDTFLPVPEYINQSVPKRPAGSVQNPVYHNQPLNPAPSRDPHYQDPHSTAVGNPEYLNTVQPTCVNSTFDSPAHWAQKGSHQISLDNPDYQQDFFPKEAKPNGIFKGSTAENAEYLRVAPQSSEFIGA
Method in brief: (§2)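 Viability read as CellTiter-Glo luminescence after 48 h compound treatment at 0.2% DMSO final. Eight concentrations, 5-fold steps, made as 500× DMSO stocks starting at 5 mM. Percent inhibition curve-fitted (Hill slope, top, bottom) to give IC50.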

BaF3-LR_TM_CS cells = BaF3-LR_TM_CS cells (Homo sapiens, UniProt P00533, T790M/C797S/L858R, cells depend on it); assay: Cell antiproliferation assay (CellTiter-Glo), BaF3-LR_TM_CS; type: cell-based; conditions: 48 h treatment, read-out: BaF3-LR_TM_CS IC50
BaF3-LR_TM_CS cells, sequence (P00533 whole entry T790M/C797S/L858R): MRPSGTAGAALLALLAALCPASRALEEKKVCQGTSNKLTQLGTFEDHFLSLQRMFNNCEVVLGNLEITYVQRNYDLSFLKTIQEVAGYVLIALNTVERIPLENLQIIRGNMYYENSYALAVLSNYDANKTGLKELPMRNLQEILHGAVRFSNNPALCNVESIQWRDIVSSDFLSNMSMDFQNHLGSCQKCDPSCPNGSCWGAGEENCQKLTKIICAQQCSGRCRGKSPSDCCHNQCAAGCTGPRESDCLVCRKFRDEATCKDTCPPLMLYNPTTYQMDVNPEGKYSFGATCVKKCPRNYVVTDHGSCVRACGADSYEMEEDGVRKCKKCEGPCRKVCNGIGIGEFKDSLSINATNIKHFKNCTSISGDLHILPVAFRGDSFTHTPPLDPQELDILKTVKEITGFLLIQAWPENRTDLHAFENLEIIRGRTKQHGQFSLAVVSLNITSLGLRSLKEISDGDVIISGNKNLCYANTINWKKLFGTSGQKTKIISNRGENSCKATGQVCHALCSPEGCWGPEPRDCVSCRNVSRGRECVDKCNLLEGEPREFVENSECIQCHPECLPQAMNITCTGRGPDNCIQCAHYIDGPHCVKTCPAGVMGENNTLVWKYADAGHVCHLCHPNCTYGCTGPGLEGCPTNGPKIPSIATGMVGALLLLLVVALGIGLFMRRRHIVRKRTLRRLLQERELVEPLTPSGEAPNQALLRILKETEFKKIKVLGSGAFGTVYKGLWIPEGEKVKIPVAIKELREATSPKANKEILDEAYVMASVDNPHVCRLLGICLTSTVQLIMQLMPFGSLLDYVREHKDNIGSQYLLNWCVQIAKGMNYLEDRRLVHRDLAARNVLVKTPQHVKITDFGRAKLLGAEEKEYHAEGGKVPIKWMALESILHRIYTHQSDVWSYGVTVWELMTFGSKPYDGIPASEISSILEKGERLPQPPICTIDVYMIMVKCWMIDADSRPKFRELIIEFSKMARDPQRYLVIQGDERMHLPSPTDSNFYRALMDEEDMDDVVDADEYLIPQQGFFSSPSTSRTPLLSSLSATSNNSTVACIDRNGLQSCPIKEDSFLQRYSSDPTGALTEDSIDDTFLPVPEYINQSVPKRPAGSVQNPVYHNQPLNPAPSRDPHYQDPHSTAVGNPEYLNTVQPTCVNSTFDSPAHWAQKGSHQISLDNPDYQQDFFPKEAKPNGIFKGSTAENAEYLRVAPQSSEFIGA
Method in brief: as §2

BaF3-Del_TM_CS cells = BaF3-Del_TM_CS cells (Homo sapiens, UniProt P00533, T790M/C797S, cells depend on it, form not given); assay: Cell antiproliferation assay (CellTiter-Glo), BaF3-Del_TM_CS; type: cell-based; conditions: 48 h treatment, read-out: BaF3-Del_TM_CS IC50
BaF3-Del_TM_CS cells, sequence (P00533 with tags, fused parts or gaps DEL746-750/T790M/C797S, form open): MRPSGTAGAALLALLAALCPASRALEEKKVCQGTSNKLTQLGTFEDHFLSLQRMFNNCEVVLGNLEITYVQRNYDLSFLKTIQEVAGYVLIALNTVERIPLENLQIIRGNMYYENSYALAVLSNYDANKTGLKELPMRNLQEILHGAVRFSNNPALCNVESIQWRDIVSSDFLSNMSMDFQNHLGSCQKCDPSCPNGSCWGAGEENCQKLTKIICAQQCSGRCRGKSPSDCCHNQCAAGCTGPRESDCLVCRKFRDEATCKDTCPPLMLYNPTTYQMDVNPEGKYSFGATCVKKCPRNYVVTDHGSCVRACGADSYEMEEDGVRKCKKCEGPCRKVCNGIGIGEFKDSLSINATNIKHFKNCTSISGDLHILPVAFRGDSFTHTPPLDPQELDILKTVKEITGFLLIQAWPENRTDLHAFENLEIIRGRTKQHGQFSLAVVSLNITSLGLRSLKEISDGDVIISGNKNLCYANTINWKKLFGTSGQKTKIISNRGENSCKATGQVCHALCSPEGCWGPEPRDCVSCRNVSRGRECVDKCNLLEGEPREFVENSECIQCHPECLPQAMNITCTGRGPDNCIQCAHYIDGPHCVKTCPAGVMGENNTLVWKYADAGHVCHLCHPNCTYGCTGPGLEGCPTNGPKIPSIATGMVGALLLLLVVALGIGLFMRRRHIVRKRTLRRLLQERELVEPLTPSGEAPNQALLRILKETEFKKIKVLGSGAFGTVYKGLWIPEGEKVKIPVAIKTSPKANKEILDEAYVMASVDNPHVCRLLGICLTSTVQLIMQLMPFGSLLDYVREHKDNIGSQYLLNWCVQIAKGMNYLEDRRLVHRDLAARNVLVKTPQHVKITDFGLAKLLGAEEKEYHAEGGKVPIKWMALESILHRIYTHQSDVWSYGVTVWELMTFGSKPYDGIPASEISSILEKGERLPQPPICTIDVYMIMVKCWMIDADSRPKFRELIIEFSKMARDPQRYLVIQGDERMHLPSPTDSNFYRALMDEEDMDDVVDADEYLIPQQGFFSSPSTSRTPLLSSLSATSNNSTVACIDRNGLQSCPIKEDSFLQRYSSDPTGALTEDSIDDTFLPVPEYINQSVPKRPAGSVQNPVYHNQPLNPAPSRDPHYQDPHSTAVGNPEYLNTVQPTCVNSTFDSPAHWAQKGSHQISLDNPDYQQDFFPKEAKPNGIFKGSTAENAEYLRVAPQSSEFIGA
Method in brief: as §2

T1 sequence (P00533 668-1210): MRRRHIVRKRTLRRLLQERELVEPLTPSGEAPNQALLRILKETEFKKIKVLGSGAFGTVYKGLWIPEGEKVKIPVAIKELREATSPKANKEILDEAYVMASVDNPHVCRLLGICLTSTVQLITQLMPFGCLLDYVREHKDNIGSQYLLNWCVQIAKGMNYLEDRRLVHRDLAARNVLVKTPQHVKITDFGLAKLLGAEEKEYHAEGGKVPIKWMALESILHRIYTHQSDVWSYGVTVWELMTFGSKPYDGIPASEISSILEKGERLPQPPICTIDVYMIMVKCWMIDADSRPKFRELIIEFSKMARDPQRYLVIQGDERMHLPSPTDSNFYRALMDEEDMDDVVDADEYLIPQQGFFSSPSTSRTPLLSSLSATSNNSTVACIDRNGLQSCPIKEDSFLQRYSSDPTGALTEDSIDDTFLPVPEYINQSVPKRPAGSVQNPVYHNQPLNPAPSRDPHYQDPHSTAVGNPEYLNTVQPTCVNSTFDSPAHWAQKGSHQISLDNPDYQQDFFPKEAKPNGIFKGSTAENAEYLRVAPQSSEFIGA

IC50 [1] [µM] | IC50 [2] [µM] | IC50 [3] [µM] | GI50 (BaF3-WT cells) [µM] | GI50 (BaF3-LR_TM_CS cells) [µM] | GI50 (BaF3-Del_TM_CS cells) [µM] | SMILES
1.36 | 2.2 | 0.369 | 4.12 | 2.03 | 1.8 | COc1cc(N2CCC(N3CCN(C)CC3)CC2)ccc1Nc1ncc(Cl)c(Nc2cccc3c2N(C(=O)N(C)C)CC3)n1 [Example 15, 7-((5-chloro-2-((2-methoxy-4-(4-(4-methylpiperazin-1-yl)piperidin-1-yl)phenyl)amino)pyrimidin-4-yl)amino)-N,N-dimethylindoline-1-carboxamide]
0.0004 | 0.0002 | 0.0003 | 0.411 | 0.0373 | 0.00759 | COc1cc(N2CCC(N3CCN(C)CC3)CC2)ccc1Nc1ncc(Cl)c(Nc2cccc3c2N(S(C)(=O)=O)CC3)n1 [Example 30, 5-chloro-N^2-(2-methoxy-4-(4-(4-methylpiperazin-1-yl)piperidin-1-yl)phenyl)-N^4-(1-(methylsulfonyl)indolin-7-yl)pyrimidine-2,4-diamine]
1.3 | 0.015 | 0.0089 | 0.274 | 0.141 | 0.0916 | CN1CCN(c2ccc(Nc3nc(Nc4cccc5c4N(S(C)(=O)=O)CC5)c4cc[nH]c4n3)c(F)c2F)CC1 [Example 85, N^2-(2,3-difluoro-4-(4-methylpiperazin-1-yl)phenyl)-N^4-(1-(methylsulfonyl)indolin-7-yl)-7H-pyrrolo[2,3-d]pyrimidine-2,4-diamine]
0.15 | 0.0016 | 0.0015 | 0.335 | 0.078 | 0.0107 | CN1CCN(c2ccc(Nc3nc(Nc4cccc5c4N(S(C)(=O)=O)CC5)c4cc[nH]c4n3)cc2F)CC1 [Example 84, N^2-(3-fluoro-4-(4-methylpiperazin-1-yl)phenyl)-N^4-(1-(methylsulfonyl)indolin-7-yl)-7H-pyrrolo[2,3-d]pyrimidine-2,4-diamine]
0.0018 | 0.00057 | 0.00061 | 0.457 | 0.0816 | 0.0539 | COc1cc(N2CCC(N3CCN(C)CC3)CC2)ccc1Nc1ncc(Cl)c(Nc2cccc3c2N(S(=O)(=O)C2CC2)CC3)n1 [Example 7, 5-chloro-N^4-(1-(cyclopropylsulfonyl)indolin-7-yl)-N^2-(2-methoxy-4-(4-(4-methylpiperazin-1-yl)piperidin-1-yl)phenyl)pyrimidine-2,4-diamine]
0.00088 | 0.00054 | 0.0019 | 0.57 | 0.246 | 0.0628 | COc1cc(N2CCC(N3CCN(C)CC3)CC2)ccc1Nc1ncc(F)c(Nc2cccc3c2N(S(C)(=O)=O)CC3)n1 [Example 32, 5-fluoro-N^2-(2-methoxy-4-(4-(4-methylpiperazin-1-yl)piperidin-1-yl)phenyl)-N^4-(1-(methylsulfonyl)indolin-7-yl)pyrimidine-2,4-diamine]
0.014 | 0.121 | 0.021 | 1.86 | 0.73 | 0.63 | COc1cc(N2CCC(N3CCN(C)CC3)CC2)ccc1Nc1ncc(Cl)c(Nc2cccc3c2N(S(=O)(=O)CCc2ccccc2)CC3)n1 [Example 8, 5-chloro-N^2-(2-methoxy-4-(4-(4-methylpiperazin-1-yl)piperidin-1-yl)phenyl)-N^4-(1-(phenethylsulfonyl)indolin-7-yl)pyrimidine-2,4-diamine]
0.028 | 0.00078 | 0.00047 | 1.69 | 0.0767 | 0.0256 | COc1cc(N2CCC(N(C)C)CC2)c(C)cc1Nc1nc(Nc2cccc3c2N(S(C)(=O)=O)CC3)c2cc[nH]c2n1 [Example 103, N^2-(4-(4-(dimethylamino)piperidin-1-yl)-2-methoxy-5-methylphenyl)-N^4-(1-(methylsulfonyl)indolin-7-yl)-7H-pyrrolo[2,3-d]pyrimidine-2,4-diamine]
0.17 | 0.0031 | 0.002 | 1.41 | 0.157 | 0.0589 | COc1cc(N2CCCN(C)CC2)c(C)cc1Nc1nc(Nc2cccc3c2N(S(C)(=O)=O)CC3)c2cc[nH]c2n1 [Example 101, N^2-(2-methoxy-5-methyl-4-(4-methyl-1,4-diazepan-1-yl)phenyl)-N^4-(1-(methylsulfonyl)indolin-7-yl)-7H-pyrrolo[2,3-d]pyrimidine-2,4-diamine]
